According to paper PMC6194023 (Cell Death & Disease, 2018):

How the values were obtained:
MDA-MB-468 [1] = assay: mitotic catastrophe, nuclear staining; type: cell-based, human; details: MDA-MB-468, 0.5 μM, 30 h
Experimental: (§1) Then treated tumor cells were washed with PBS and stain with Hoechst 33342 in the dark for 15 min. Image were taken by fluorescence microscopy for morphological changes after YLT-11 treatment.

MDA-MB-231 [2] = assay: mitotic catastrophe, nuclear staining; type: cell-based, human; details: MDA-MB-231, 0.5 μM, 30 h
Experimental: as §1

PLK2 [3] = biological target: T1, PLK2 (Homo sapiens, UniProt Q9NYY3); assay: competition binding constant assay
T1 construct: made in house; host or cells: T7 phage in E. coli (BL21-derived) or HEK-293 cells
Experimental: (§3) Kinases were produced in HEK-293 cells and subsequently tagged with DNA for quantitative polymerase chain reaction (qPCR) detection. […] The beads were blocked with excess biotin and washed with blocking buffer (SeaBlock, 1% bovine serum albumin, 0.05% Tween-20, 1 mM dithiothreitol (DTT)). […] The kinase concentration in the eluates was measured by qPCR.

PLK1 [4] = biological target: T2, PLK1 (Homo sapiens, UniProt P53350); assay: kinase activity in vitro; type: biochemical
ERBB2/HER2 = ERBB2/HER2 (Homo sapiens, UniProt P04626); assay: kinase activity in vitro; type: biochemical
MDA-MB-468 [5] = assay: cells; details: Homo sapiens, MDA-MB-468, read-out: IC50 proliferation
Experimental: (§2) The IC50 values were calculated using the GraphPad Prism software, each assay was replicated 3 times.

TNBC cell lines = assay: cells; details: Homo sapiens, read-out: IC50 proliferation, range over TNBC cell lines
Experimental: as §2

MDA-MB-436 = assay: cells; details: Homo sapiens, MDA-MB-436, read-out: IC50 proliferation
Experimental: as §2

BT549 = assay: cells; details: Homo sapiens, BT-549, read-out: IC50 proliferation
Experimental: as §2

HCC1954 = assay: cells; details: Homo sapiens, HCC1954, read-out: IC50 proliferation
Experimental: as §2

MCF-10A = assay: cells; details: Homo sapiens, read-out: IC50 proliferation
Experimental: as §2

MDA-MB-453 = assay: cells; details: Homo sapiens, MDA-MB-453, read-out: IC50 proliferation
Experimental: as §2

MDA-MB-435 = assay: cells; details: Homo sapiens, MDA-MB-435, read-out: IC50 proliferation
Experimental: as §2

ZR-75-1 = assay: cells; details: Homo sapiens, ZR-75-1, read-out: IC50 proliferation
Experimental: as §2

MDA-MB-231 [6] = assay: cells; details: Homo sapiens, MDA-MB-231, read-out: IC50 proliferation
Experimental: as §2

SKBR-3 = assay: cells; details: Homo sapiens, SK-BR-3, read-out: IC50 proliferation
Experimental: as §2

MCF-7 = assay: cells; details: Homo sapiens, MCF7, read-out: IC50 proliferation
Experimental: as §2

BT474 = assay: cells; details: Homo sapiens, BT-474, read-out: IC50 proliferation
Experimental: as §2

ZR-75-30 = assay: cells; details: Homo sapiens, ZR-75-30, read-out: IC50 proliferation
Experimental: as §2

[7] = system: MDA-MB-468 and MDA-MB-231; assay: centriole number by immunofluorescence (centrin 2, γ-tublin); type: cell-based, human; details: 24 h
Experimental: Tumor cells were seeded in Millicell EZ SLIDE 8 well glass slide (Millipore, Ireland) at the density of 2 × 10^4 per well. […] Then cells were incubated with primary antibody overnight at 4 ℃ after blocked with 1% BSA. Goat anti-rabbit and goat anti-mouse secondary antibodies conjugated to FITC and […] were used to detect primary antibodies. Cell nucleuses were stained with DAPI. Images were taken using a Leica cofocusing microscope.

TOPK = TOPK (Homo sapiens, UniProt Q96KB5); assay: kinase activity in vitro; type: biochemical
PLK3 [8] = biological target: T3, PLK3 (Homo sapiens, UniProt Q9H4B4); assay: competition binding constant assay
Experimental: as §3

PLK2 [9] = biological target: T1, PLK2; assay: kinase activity in vitro; type: biochemical
sub-acute toxicity test = type: in vivo, BALB/c mice; details: single oral dose 1 g/kg, observed 15 days
From the text: Then blood of the mice was obtained for serum biochemistry and hematological analysis using a Hitachi 7200 Blood Chemistry Analyzer and a Nihon Kohdern MEK-5216K Automatic Hematology Analyzer. The heart, liver, spleen, lung and kidney were fixed and routinely processed and embedded in paraﬃn for hematoxylin and eosin (H&E) staining analysis.

TTBK1 = TTBK1 (Homo sapiens, UniProt Q5TCY1); assay: kinase activity in vitro; type: biochemical
[10] = system: MDA-MB-468 tumor xenograft; details: MDA-MB-468 xenograft, 90 mg/kg p.o. every day
MCF-7 tumor xenograft = details: MCF-7 xenograft, 90 mg/kg p.o. every day
breast xenograft models = assay: breast tumor xenograft models (overall, tolerability); type: in vivo, BALB/c nude mice
EGFR = EGFR (Homo sapiens, UniProt P00533); assay: kinase activity in vitro; type: biochemical
JNK2 = JNK2 (Homo sapiens, UniProt P45984); assay: kinase activity in vitro; type: biochemical
TTBK2 = TTBK2 (Homo sapiens, UniProt Q6IQ55); assay: kinase activity in vitro; type: biochemical
PLK1 [11] = biological target: T2, PLK1; assay: competition binding constant assay
Experimental: as §3

MDA-MB-231 xenografts = assay: immunohistochemical analysis of tumor tissues; details: MDA-MB-231 tumor tissue
From the text: Tumor tissues obtained from the animal models were immersed in 4% paraformaldehyde. After washing with running tap water overnight, the tissues dehydrated trough a serial alcohol gradient and embedded in paraffin, Paraffin-embedded tumor sections were stained with primary antibodies (Ki67, cleaved caspase-3, p21, CDC25C, CyclinB1) using the DAB Detection Kit. The images were captured with a Carl Zeiss digital camera attached to a light microscope.

PLK3 [12] = biological target: T3, PLK3; assay: kinase activity in vitro; type: biochemical
Aurora A = Aurora A (Homo sapiens, UniProt O14965); assay: kinase activity in vitro; type: biochemical
[13] = system: MDA-MB-231 tumor xenograft; details: MDA-MB-231 xenograft, 90 mg/kg p.o. every day
NEK2 = NEK2 (Homo sapiens, UniProt P51955); assay: kinase activity in vitro; type: biochemical
FGFR1 = FGFR1 (Homo sapiens, UniProt P11362); assay: kinase activity in vitro; type: biochemical

T1 sequence (Q9NYY3 whole entry): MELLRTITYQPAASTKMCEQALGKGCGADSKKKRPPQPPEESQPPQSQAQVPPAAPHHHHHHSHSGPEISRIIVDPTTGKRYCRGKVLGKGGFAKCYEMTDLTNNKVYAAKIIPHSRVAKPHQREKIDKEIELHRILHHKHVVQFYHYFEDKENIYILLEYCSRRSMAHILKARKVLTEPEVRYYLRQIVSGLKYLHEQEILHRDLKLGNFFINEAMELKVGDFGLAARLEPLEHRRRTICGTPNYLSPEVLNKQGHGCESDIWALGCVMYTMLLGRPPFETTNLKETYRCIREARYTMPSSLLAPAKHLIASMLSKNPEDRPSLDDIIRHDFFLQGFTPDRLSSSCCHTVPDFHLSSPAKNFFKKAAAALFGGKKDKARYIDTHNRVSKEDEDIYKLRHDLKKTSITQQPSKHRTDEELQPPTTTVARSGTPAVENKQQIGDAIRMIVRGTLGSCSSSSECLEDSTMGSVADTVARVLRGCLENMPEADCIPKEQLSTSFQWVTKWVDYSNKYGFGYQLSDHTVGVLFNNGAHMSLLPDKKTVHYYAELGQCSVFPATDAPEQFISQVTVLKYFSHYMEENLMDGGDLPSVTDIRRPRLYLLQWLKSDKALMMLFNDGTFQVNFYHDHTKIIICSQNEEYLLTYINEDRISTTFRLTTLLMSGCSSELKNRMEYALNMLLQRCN
T2 sequence (P53350 whole entry): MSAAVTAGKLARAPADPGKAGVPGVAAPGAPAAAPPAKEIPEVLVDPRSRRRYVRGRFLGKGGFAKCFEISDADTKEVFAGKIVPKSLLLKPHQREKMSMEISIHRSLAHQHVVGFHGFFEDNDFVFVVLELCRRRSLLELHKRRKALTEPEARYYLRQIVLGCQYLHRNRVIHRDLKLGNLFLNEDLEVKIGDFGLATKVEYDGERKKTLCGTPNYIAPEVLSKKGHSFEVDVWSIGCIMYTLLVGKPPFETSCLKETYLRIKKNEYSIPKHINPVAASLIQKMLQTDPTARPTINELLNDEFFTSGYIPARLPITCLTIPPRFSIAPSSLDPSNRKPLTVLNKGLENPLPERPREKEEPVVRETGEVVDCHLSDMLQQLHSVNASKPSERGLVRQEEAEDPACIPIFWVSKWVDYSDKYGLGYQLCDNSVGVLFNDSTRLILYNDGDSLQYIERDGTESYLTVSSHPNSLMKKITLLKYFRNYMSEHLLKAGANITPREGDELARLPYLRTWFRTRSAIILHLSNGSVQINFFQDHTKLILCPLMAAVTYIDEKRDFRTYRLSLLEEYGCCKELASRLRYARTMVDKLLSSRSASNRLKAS
T3 sequence (Q9H4B4 whole entry): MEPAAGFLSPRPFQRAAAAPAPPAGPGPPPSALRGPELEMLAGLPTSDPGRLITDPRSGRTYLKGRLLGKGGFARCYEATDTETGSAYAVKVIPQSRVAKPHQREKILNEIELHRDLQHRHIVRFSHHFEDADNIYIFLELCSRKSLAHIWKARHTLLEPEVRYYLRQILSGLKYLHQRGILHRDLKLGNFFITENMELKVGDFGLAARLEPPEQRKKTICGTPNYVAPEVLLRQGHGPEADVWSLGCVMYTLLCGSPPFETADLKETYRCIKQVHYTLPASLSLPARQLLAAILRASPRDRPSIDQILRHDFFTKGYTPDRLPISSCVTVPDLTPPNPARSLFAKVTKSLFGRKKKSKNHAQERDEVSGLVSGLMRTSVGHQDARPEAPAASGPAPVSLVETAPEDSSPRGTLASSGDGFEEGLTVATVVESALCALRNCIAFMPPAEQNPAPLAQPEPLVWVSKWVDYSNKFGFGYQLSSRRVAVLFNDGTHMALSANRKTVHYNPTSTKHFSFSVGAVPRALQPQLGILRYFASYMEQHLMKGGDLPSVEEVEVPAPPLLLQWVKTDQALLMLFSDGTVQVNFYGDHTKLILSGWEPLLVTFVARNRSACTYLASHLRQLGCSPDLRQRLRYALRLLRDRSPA
EGFR, sequence (P00533 25-1210): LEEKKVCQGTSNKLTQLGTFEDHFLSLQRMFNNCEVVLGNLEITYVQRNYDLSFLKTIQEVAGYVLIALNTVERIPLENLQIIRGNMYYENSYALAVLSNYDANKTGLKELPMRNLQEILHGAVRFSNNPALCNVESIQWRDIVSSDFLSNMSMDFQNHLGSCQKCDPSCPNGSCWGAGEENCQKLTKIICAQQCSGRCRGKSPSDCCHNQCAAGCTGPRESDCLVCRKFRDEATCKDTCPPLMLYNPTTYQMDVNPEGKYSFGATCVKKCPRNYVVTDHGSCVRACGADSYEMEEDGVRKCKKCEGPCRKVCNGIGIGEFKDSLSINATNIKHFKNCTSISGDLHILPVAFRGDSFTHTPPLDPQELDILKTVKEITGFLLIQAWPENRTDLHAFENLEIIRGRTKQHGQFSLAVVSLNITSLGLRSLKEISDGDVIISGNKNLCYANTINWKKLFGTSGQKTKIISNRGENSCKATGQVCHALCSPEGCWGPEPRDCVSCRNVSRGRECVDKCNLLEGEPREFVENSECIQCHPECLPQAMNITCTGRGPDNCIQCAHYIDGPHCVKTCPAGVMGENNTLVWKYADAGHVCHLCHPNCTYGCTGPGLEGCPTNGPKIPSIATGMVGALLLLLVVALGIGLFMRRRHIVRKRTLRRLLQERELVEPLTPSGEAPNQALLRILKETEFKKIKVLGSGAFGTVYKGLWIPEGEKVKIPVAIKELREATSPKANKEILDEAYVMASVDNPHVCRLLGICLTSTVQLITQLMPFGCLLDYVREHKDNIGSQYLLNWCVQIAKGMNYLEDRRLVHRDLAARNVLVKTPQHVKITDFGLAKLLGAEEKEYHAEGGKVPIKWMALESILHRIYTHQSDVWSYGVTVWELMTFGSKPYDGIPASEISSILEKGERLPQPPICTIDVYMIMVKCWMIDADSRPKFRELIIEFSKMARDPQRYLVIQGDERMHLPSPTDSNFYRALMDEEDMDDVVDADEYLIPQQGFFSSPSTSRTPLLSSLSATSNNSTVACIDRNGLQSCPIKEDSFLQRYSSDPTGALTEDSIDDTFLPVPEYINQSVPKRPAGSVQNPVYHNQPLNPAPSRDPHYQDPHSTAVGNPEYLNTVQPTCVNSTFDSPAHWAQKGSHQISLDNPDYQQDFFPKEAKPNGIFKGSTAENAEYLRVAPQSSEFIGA
TOPK, sequence (Q96KB5 whole entry): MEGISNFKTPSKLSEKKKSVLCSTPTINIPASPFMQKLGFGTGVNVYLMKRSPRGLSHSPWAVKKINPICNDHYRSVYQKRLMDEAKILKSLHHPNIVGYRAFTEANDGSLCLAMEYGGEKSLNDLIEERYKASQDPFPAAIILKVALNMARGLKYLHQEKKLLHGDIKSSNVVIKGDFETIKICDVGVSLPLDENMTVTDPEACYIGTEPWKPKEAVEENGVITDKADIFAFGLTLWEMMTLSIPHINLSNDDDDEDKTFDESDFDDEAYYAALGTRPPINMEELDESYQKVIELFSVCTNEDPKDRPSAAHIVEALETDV
TTBK1, sequence (Q5TCY1 whole entry): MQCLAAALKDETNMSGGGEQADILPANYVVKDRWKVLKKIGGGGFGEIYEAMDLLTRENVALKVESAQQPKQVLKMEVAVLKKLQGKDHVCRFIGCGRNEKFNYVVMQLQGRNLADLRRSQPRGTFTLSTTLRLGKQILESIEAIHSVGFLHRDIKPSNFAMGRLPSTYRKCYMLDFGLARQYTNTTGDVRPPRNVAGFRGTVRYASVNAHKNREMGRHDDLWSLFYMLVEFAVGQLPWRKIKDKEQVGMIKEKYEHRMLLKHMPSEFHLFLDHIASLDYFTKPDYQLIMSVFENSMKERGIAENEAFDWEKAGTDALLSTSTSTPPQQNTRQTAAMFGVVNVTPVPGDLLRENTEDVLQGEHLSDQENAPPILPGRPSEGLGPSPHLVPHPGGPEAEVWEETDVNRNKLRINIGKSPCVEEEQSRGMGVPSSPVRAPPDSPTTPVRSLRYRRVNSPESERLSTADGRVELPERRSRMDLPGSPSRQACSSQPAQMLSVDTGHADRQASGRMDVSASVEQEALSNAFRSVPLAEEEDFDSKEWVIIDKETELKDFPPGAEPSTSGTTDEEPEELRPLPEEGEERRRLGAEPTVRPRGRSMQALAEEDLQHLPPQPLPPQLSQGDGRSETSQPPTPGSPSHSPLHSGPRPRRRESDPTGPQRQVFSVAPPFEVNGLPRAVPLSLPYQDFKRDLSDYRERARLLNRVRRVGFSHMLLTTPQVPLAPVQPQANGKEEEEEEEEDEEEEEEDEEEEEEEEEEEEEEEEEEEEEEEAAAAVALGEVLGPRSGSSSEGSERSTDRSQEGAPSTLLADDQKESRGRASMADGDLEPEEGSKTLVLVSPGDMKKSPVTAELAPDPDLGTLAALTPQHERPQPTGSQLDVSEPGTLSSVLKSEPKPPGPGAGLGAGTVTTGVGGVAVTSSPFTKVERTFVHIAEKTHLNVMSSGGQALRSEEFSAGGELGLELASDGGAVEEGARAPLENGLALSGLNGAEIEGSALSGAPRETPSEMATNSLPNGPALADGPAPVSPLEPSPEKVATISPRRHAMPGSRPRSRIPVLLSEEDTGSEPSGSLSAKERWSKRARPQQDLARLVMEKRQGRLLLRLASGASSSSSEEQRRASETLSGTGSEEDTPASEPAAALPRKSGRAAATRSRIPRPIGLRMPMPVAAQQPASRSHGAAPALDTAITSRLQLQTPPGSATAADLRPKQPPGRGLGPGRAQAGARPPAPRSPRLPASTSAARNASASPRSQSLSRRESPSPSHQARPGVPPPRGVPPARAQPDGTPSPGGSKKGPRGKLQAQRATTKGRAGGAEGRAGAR

With `CC(=O)Nc1nccc(-c2ccc3c(/C=C/c4ccc(CN(C)C)cc4)n[nH]c3c2)n1` [YLT-11, (E)-N-(4-(3-(4-((dimethylamino)methyl)styryl)-1H-indazol-6-yl)pyrimidin-2-yl)acetamide] the “Percentage of cells with mitotic catastrophe” value (MDA-MB-468 [1]) was “approximately 67%”, the “Percentage of cells with mitotic catastrophe” value (MDA-MB-231 [2]) was “about 58%” and the Kd (PLK2 [3]) was 653 nM. For the same molecule, the IC50 (PLK1 [4]) was 4780 nM, the IC50 (ERBB2/HER2) was 539 nM and the IC50 (MDA-MB-468 [5]) was 68 nM. It also gave an IC50 (TNBC cell lines) of 68 to 120 nM, an IC50 (MDA-MB-436) of 80 nM and an IC50 (BT549) of 73 nM. For the same molecule, the IC50 (HCC1954) was 170 nM, the IC50 (MCF-10A) was > 10000 nM and the IC50 (MDA-MB-453) was 210 nM. For the same molecule, the IC50 (MDA-MB-435) was 154 nM, the IC50 (ZR-75-1) was 223 nM and the IC50 (MDA-MB-231 [6]) was 120 nM. It also gave an IC50 (SKBR-3) of 231 nM, an IC50 (MCF-7) of 74 nM and an IC50 (BT474) of 163 nM. For the same molecule, the IC50 (ZR-75-30) was 184 nM, the “effect on centriole duplication” value ([7]; 0.5 μM) was “centriole duplications were conspicuously suppressed” and the “effect on centriole numbers” value ([7]; low concentrations (≤0.25 μM)) was “increased the centriole numbers”. For the same molecule, the IC50 (TOPK) was 1030 nM, the Kd (PLK3 [8]) was > 10000 nM and the IC50 (PLK2 [9]) was 5730 nM. For the same molecule, the “body weight and hematoxylin and eosin staining vs vehicle” value (sub-acute toxicity test) was “no obvious difference”, the “serological and hematological analyses vs vehicle” value (sub-acute toxicity test) was “no significant difference” and the IC50 (TTBK1) was 56700 nM. The tumor inhibition rate [10] was 82.5%, the tumor inhibition rate (MCF-7 tumor xenograft) was 68% and the “inhibitory rate on tumor growth” value (breast xenograft models; breast xenograft models, 90 mg/kg (p.o)) was “more than 60%”. The “body weight of experimental animals” value (breast xenograft models; xenograft mice, 30 and 90 mg/kg p.o. every day) was “no significant loss in body weight”, the IC50 (EGFR) was 664 nM and the IC50 (JNK2) was 2700 nM. The IC50 (TTBK2) was 8490 nM, the Kd (PLK1 [11]) was > 10000 nM and the “cleaved caspase-3-positive cells” value (MDA-MB-231 xenografts; vehicle 12.3 ± 5.1) was 66 ± 7.3%. For the same molecule, the Ki67-positive cells (MDA-MB-231 xenografts; vehicle 78 ± 8.1%) was 29 ± 6.3%, the IC50 (PLK3 [12]) was 4120 nM and the IC50 (Aurora A) was 468 nM. It also gave a tumor inhibition rate [13] of 76.7%, an IC50 (NEK2) of 332 nM and an IC50 (FGFR1) of 751 nM.
